In patent US20170246144A1, “METHOD OF PREVENTING OR TREATING SPINOCEREBELLAR ATAXIA BY ADMINISTRATING SILIBININ” (National Taiwan Normal University, priority 2016, published 2017):

Tests used:
[1] = test system: SCA17 transgenic mice; experiment: Footprint pattern analysis in SCA17 transgenic mice; type: in vivo; settings: 4.5 mg/kg i.p. once every 2 days
Procedure: (§1) FIGS. 10A-10F show the effects of SB on the body weight and motor performance in SCA17 transgenic mice. Mice were grouped into wild type-saline (WT-saline), transgenic-saline (TG-saline), and transgenic-SB treatment (TG-SB) groups. Mice were injected intraperitoneally with saline or SB (4.5 mg/kg) at 8-week old once every 2 days. […] FIG. 10E and FIG. 10F show respectively the stride length of front-limb/hind-limb at the right-side and the left-side. The values represent means±SD, n=6. *p<0.05, comparing to the TG-saline group.
(§2) Since the SCA17 mice were 8 weeks old, the mice were injected intraperitoneally with silibinin in saline at 4.5 mg/kg once every 2 days, designated as TG_SB group. The mice in TG_saline group were injected with same amount of saline.
In addition, footprint pattern analysis was conducted to observe any abnormity of the gait of the mice. Such test was conducted widely to determine motor skill, coordination and balance. The hindfeet and forefeet of the mouse were coated with red and blue nontoxic paint respectively, and the mouse was allowed to walk along a runway on a fresh sheet of white paper. The distance between the centers of the hind footprint and the fore footprint, the length of the step, and the parallel distance were measured for a continuous 6 steps, excluding the steps in the beginning and at the end. The test was performed once every half month.

[2] = test system: SH-SY5Y cells; experiment: MTT cytotoxicity of silibinin toward SH-SY5Y cells; type: cell-based; settings: Homo sapiens, 24 hours, read-out: cyto-toxicity toward SH-SY5Y cells, IC50
Excerpt: FIGS. 1A and 1B show the effects of silibinin (SB) in reducing the death of SH-SY5Y cell induced by mono-sodium glutamate (MSG). […] Data were the mean values of three independent experiments. Ctrl: control group.
In order to monitor the cyto-toxicity of silibinin and its ability in resisting glutamatergic excitotoxicity, MTT colorimetric assay was used to measure the cell viability rate of neuroblastoma SH-SY5Y cells which were pre-treated with silibinin and mono-sodium glutamate (MSG).
After the treatment, 0.5 mg/mL MTT was added to the culture media, and the cells were incubated for 3 hours at 37° C. 100 μL lysis solution (10% sodium dodecyl sulfate (SDS) and 0.01N HCl) was added and the absorbance of the media was read at OD570. The percentage of cell viability was calculated as follows:
Cell viability (%)=(OD570 of experimental well/OD570 of control well)×100%

[3] = test system: nTBP/Q79-EGFP cells; experiment: MTT viability of Dox-induced nTBP/Q79-EGFP cells; type: cell-based, Human; settings: 15 μM, Dox induction 5 days
Procedure: FIGS. 8A-8C show the effects of SB on improving the viability of nTBP/Q79-EGFP cells and inhibiting the expression levels of cleaved caspase-9, cleaved caspase-3, and cleaved PARP in nTBP/Q79-EGFP cells induced by doxycycline (Dox). FIG. 8A: The viabilities of 1.0×10^6 nTBP/Q36-EGFP cells and nTBP/Q79-EGFP cells which were pretreated with 15 μM SB for 1 hour followed by the induction of Dox for 1, 3, and 5 days were measured by MTT assay. FIG. 8B: 1.0×10^6 nTBP/Q36-EGFP cells and nTBP/Q79-EGFP cells were pretreated with 15 μM SB for 1 hour followed by the induction of Dox for 5 days. The levels of cleaved caspase-9, cleaved caspase-3, and cleaved PARP were detected by western blotting. Actin was used as a loading control. […] The results were shown as mean±SD, n=3, *p<0.05, comparing to the Dox group.
Human neuroblastoma SH-SY5Y cell line was obtained from American Type Culture Collection (ATCC). nTBP/Q36-EGFP cells (poly-Q of TATA-binding protein contains 36 glutamines in SH-SY5Y cells) and nTBP/Q79-EGFP cells (poly-Q of TATA-binding protein contains 79 glutamines in SH-SY5Y cells) were kindly supplied by Dr. Guey-Jen Lee-Chen, National Taiwan Normal University (NTNU). […]
The cell viability was measured using MTT colorimetric assay as mentioned previously. […]

[4] = test system: SCA17 transgenic mice; experiment: Western blotting of TBP/polyQ aggregation and cleaved caspase 3 in cerebellum of SCA17 mice; type: in vivo; settings: 4.5 mg/kg i.p. once every 2 days, 20 weeks old
Procedure: FIGS. 11A and 11B show the effects of SB on the levels of TBP (N12) and cleaved caspase-3 in SCA17 transgenic mice. Mice were grouped into wild type-saline (WT-saline), transgenic-saline (TG-saline), and transgenic-SB treatment (TG-SB) groups. Mice were injected intraperitoneally with saline or SB (4.5 mg/kg) at 8-week old once every 2 days. FIG. 11A: The extent of TBP aggregation (detected with TBP (N12) antibody) and the levels of cleaved caspase-3 in the cerebella of mice were measured by western blotting at 20-week old. Actin was used as a loading control. […] The results were shown as mean±SEM, n=6, *p<0.05, comparing to the TG-saline group.
as §2
In order to understand whether silibinin can reduce TBP/polyQ protein aggregation and the expression of cleaved-caspase 3 in the cerebellum of SCA17 mouse, TBP/polyQ protein aggregation and the expression of cleaved-caspase 3 in the cerebellum of SCA17 mouse were measured. […]

[5] = test system: SCA17 transgenic mice; experiment: Rotarod test in SCA17 transgenic mice; type: in vivo; settings: 4.5 mg/kg i.p. once every 2 days from 8 weeks old
Procedure: as §1, §2
At the 10th week, the rotarod test was performed to measure the motor coordination of the mice. The mice were trained prior to drug treatment. The mouse was placed on the rotarod with acceleration from 2 to 20 rpm for 5 minutes maintaining at 20 rpm for 5 more minutes to establish the baseline of the behavior of the mouse.
The condition was maintained at a linear acceleration from 4 to 30 rpm within 5 minutes during the testing period. The rotarod test was performed once every 2 weeks, since the mouse was 10 weeks old till 20 weeks old. […] The latency of fall was recorded. […]

`COc1cc(C2Oc3cc([C@H]4Oc5cc(O)cc(O)c5C(=O)[C@@H]4O)ccc3OC2CO)ccc1O` (stereo partly shown) [silibinin] was tested, and the “overlapped length of footprints, left-paw” value [1] was 0.8±0.1 cm, the “overlapped length of footprints, right-paw” value [1] was 1.1±0.1 cm and the IC50 [2] was 30 µM. For the same molecule, the “increase of cell viability of nTBP/Q79-EGFP cells” value [3] was “approximately 20%”, the “inhibition of TBP/polyQ protein aggregation in cerebellum” value [4] was 100% and the “inhibition of cleaved caspase 3 protein level in cerebellum” value [4] was 25%. For the same molecule, the “average time of the latency of fall, rotarod” value [5] was 393 ± 36 s.
